Measured values taken from PubChem BioAssay (NCI).
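Five concentrations, 48 hours, 96-well plates. At the TGI there is no net growth.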

Assays:
Assay in all cases: inhibition of tumour cell growth, NCI panel, 48 h
OVCAR-5 ovarian = test system: OVCAR-5 ovarian
K-562 leukemia = test system: K-562 leukemia
U251 CNS = test system: U251 CNS
NCI/ADR-RES ovarian = test system: NCI/ADR-RES ovarian
NCI-H460 lung = test system: NCI-H460 lung
SNB-19 CNS = test system: SNB-19 CNS
A549 NSCLC = test system: A549 NSCLC
EKVX NSCLC = test system: EKVX NSCLC
SK-MEL-28 melanoma = test system: SK-MEL-28 melanoma
SNB-75 CNS = test system: SNB-75 CNS
COLO 205 colon = test system: COLO 205 colon
DU-145 prostate = test system: DU-145 prostate
SK-MEL-5 melanoma = test system: SK-MEL-5 melanoma
UO-31 renal = test system: UO-31 renal
SR leukemia = test system: SR leukemia
MDA-MB-231 breast = test system: MDA-MB-231 breast
M14 melanoma = test system: M14 melanoma
SF-295 CNS = test system: SF-295 CNS
RPMI-8226 leukemia = test system: RPMI-8226 leukemia
UACC-62 melanoma = test system: UACC-62 melanoma
KM12 colon = test system: KM12 colon
786-0 renal = test system: 786-0 renal
HL-60(TB) leukemia = test system: HL-60(TB) leukemia
HOP-62 NSCLC = test system: HOP-62 NSCLC
HCT-15 colon = test system: HCT-15 colon
OVCAR-8 ovarian = test system: OVCAR-8 ovarian
NCI-H23 lung = test system: NCI-H23 lung
SW-620 colon = test system: SW-620 colon
NCI-H522 lung = test system: NCI-H522 lung
MDA-N = test system: MDA-N
SN12C renal = test system: SN12C renal
HCC-2998 colon = test system: HCC-2998 colon
A498 renal = test system: A498 renal
TK-10 renal = test system: TK-10 renal
MCF7 breast = test system: MCF7 breast
RXF 393 renal = test system: RXF 393 renal
BT-549 breast = test system: BT-549 breast
LOX IMVI melanoma = test system: LOX IMVI melanoma
MDA-MB-435 = test system: MDA-MB-435
PC-3 prostate = test system: PC-3 prostate
HCT-116 colon = test system: HCT-116 colon
IGROV1 ovarian = test system: IGROV1 ovarian
UACC-257 melanoma = test system: UACC-257 melanoma
SK-OV-3 ovarian = test system: SK-OV-3 ovarian
OVCAR-4 ovarian = test system: OVCAR-4 ovarian
MOLT-4 leukemia = test system: MOLT-4 leukemia
NCI-H226 lung = test system: NCI-H226 lung
ACHN renal = test system: ACHN renal
HOP-92 NSCLC = test system: HOP-92 NSCLC
SF-539 CNS = test system: SF-539 CNS
CAKI-1 renal = test system: CAKI-1 renal
T-47D breast = test system: T-47D breast
HT29 colon = test system: HT29 colon
CCRF-CEM leukemia = test system: CCRF-CEM leukemia
OVCAR-3 ovarian = test system: OVCAR-3 ovarian
SK-MEL-2 melanoma = test system: SK-MEL-2 melanoma
SF-268 CNS = test system: SF-268 CNS
HS 578T breast = test system: HS 578T breast
MALME-3M melanoma = test system: MALME-3M melanoma

In the case of `COC(=O)CCC12CCC(O1)c1ccccc12` (stereo unspecified), the TGI (OVCAR-5 ovarian) is reported as > 100 µM, the TGI (K-562 leukemia) is reported as > 100 µM and the TGI (U251 CNS) is reported as > 100 µM. The TGI (NCI/ADR-RES ovarian) was > 100 µM, the TGI (NCI-H460 lung) was > 100 µM and the TGI (SNB-19 CNS) was > 100 µM. The TGI (A549 NSCLC) was > 100 µM, the TGI (EKVX NSCLC) was > 100 µM and the TGI (SK-MEL-28 melanoma) was > 100 µM. The TGI (SNB-75 CNS) was > 100 µM, the TGI (COLO 205 colon) was > 100 µM and the TGI (DU-145 prostate) was > 100 µM. For the same molecule, the TGI (SK-MEL-5 melanoma) was > 100 µM, the TGI (UO-31 renal) was > 100 µM and the TGI (SR leukemia) was > 100 µM. For the same molecule, the TGI (MDA-MB-231 breast) was > 100 µM, the TGI (M14 melanoma) was > 100 µM and the TGI (SF-295 CNS) was > 100 µM. For the same molecule, the TGI (RPMI-8226 leukemia) was > 100 µM, the TGI (UACC-62 melanoma) was > 100 µM and the TGI (KM12 colon) was > 100 µM. For the same molecule, the TGI (786-0 renal) was > 100 µM, the TGI (HL-60(TB) leukemia) was > 100 µM and the TGI (HOP-62 NSCLC) was > 100 µM. For the same molecule, the TGI (HCT-15 colon) was > 100 µM, the TGI (OVCAR-8 ovarian) was > 100 µM and the TGI (NCI-H23 lung) was > 100 µM. The TGI (SW-620 colon) was > 100 µM, the TGI (NCI-H522 lung) was > 100 µM and the TGI (MDA-N) was > 100 µM. The TGI (SN12C renal) was > 100 µM, the TGI (HCC-2998 colon) was > 100 µM and the TGI (A498 renal) was > 100 µM. The TGI (TK-10 renal) was > 100 µM, the TGI (MCF7 breast) was > 100 µM and the TGI (RXF 393 renal) was > 100 µM. For the same molecule, the TGI (BT-549 breast) was > 100 µM, the TGI (LOX IMVI melanoma) was > 100 µM and the TGI (MDA-MB-435) was > 100 µM. For the same molecule, the TGI (PC-3 prostate) was > 100 µM, the TGI (HCT-116 colon) was > 100 µM and the TGI (IGROV1 ovarian) was > 100 µM. The TGI (UACC-257 melanoma) was > 100 µM, the TGI (SK-OV-3 ovarian) was > 100 µM and the TGI (OVCAR-4 ovarian) was > 100 µM. For the same molecule, the TGI (MOLT-4 leukemia) was > 100 µM, the TGI (NCI-H226 lung) was > 100 µM and the TGI (ACHN renal) was > 100 µM. The TGI (HOP-92 NSCLC) was > 100 µM, the TGI (SF-539 CNS) was > 100 µM and the TGI (CAKI-1 renal) was > 100 µM. For the same molecule, the TGI (T-47D breast) was > 100 µM, the TGI (HT29 colon) was > 100 µM and the TGI (CCRF-CEM leukemia) was > 100 µM.
`CSC1=C(c2ccc(Cl)cc2)SC(N2CCCCC2)N1c1ccc([N+](=O)[O-])cc1` (stereo unspecified) was tested, and the TGI (OVCAR-5 ovarian) was 65.9 µM, the TGI (K-562 leukemia) was > 100 µM and the TGI (U251 CNS) was 56.4 µM. For the same molecule, the TGI (NCI/ADR-RES ovarian) was 62.3 µM, the TGI (NCI-H460 lung) was 66.4 µM and the TGI (SNB-19 CNS) was > 100 µM. For the same molecule, the TGI (A549 NSCLC) was > 100 µM, the TGI (EKVX NSCLC) was > 100 µM and the TGI (SK-MEL-28 melanoma) was > 100 µM. For the same molecule, the TGI (SNB-75 CNS) was 96.2 µM, the TGI (COLO 205 colon) was 81.3 µM and the TGI (SK-MEL-5 melanoma) was 29.9 µM. For the same molecule, the TGI (OVCAR-3 ovarian) was 58.1 µM, the TGI (UO-31 renal) was > 100 µM and the TGI (SR leukemia) was > 100 µM. The TGI (SK-MEL-2 melanoma) was 54.3 µM, the TGI (MDA-MB-231 breast) was 77.1 µM and the TGI (M14 melanoma) was > 100 µM. For the same molecule, the TGI (SF-295 CNS) was 61.2 µM, the TGI (RPMI-8226 leukemia) was 45.2 µM and the TGI (UACC-62 melanoma) was > 100 µM. For the same molecule, the TGI (KM12 colon) was > 100 µM, the TGI (786-0 renal) was > 100 µM and the TGI (HL-60(TB) leukemia) was 97.4 µM. The TGI (HOP-62 NSCLC) was 41.8 µM, the TGI (HCT-15 colon) was 89 µM and the TGI (OVCAR-8 ovarian) was 93.7 µM. The TGI (NCI-H23 lung) was 85.2 µM, the TGI (SW-620 colon) was > 100 µM and the TGI (NCI-H522 lung) was 63.3 µM. The TGI (MDA-N) was > 100 µM, the TGI (HCC-2998 colon) was > 100 µM and the TGI (A498 renal) was 73.2 µM. For the same molecule, the TGI (TK-10 renal) was > 100 µM, the TGI (MCF7 breast) was > 100 µM and the TGI (RXF 393 renal) was > 100 µM. For the same molecule, the TGI (BT-549 breast) was > 100 µM, the TGI (LOX IMVI melanoma) was > 100 µM and the TGI (MDA-MB-435) was > 100 µM. The TGI (PC-3 prostate) was 63.4 µM, the TGI (HCT-116 colon) was 62.8 µM and the TGI (SF-268 CNS) was > 100 µM. For the same molecule, the TGI (HS 578T breast) was > 100 µM, the TGI (IGROV1 ovarian) was > 100 µM and the TGI (UACC-257 melanoma) was 85.8 µM. For the same molecule, the TGI (SK-OV-3 ovarian) was 81.9 µM, the TGI (OVCAR-4 ovarian) was > 100 µM and the TGI (MOLT-4 leukemia) was 75.9 µM. For the same molecule, the TGI (NCI-H226 lung) was > 100 µM, the TGI (ACHN renal) was > 100 µM and the TGI (HOP-92 NSCLC) was 72.3 µM. The TGI (SF-539 CNS) was 56.5 µM, the TGI (CAKI-1 renal) was > 100 µM and the TGI (T-47D breast) was 70.1 µM. The TGI (HT29 colon) was > 100 µM, the TGI (MALME-3M melanoma) was > 100 µM and the TGI (CCRF-CEM leukemia) was > 100 µM.
